Experimental data: publication PMC6767256, “Leishmania mexicana Trypanothione Reductase Inhibitors: Computational and Biological Studies” (Molecules, 2019)
Read-outs that look alike come from different tables or passages of the source.

Legend:
[1] = Macrophage cytotoxicity assay (resazurin); details: mouse
Description: The cytotoxicity of the five selected compounds was tested using murine macrophage cell line J774.2 (ATCC ®TIB-67). […] For this, macrophages were seeded (5 × 10^4 cells/well) in 96-well flat-bottomed microplates and allowed to adhere for 24 h at 37 °C in 5% CO2. […] Thereafter, 20 µL of a 2.5 mM resazurin solution was added to each well, and the plates were incubated for another 4 h. The fluorescence emission was measured as described above. The half-maximal cytotoxicity concentration (CC50) was determined by Probit analysis.

[2] = test system: recombinant LmTR (rLmTR); assay: Inhibition of rLmTR activity (NADPH oxidation at 340 nm); type: biochemical, Leishmania mexicana; details: 10% DMSO
Description: (§1) The enzymatic activity of rLmTR was assayed spectrophotometrically as previously described. The reaction mixture contained 40 mM Hepes, pH 7.5, 1 mM EDTA, 150 µM NADPH, and 30 ng rLmTR. The reaction was initiated by adding the substrate (T[S]2) at 400 µM and was allowed to proceed for 1 min. NADPH oxidation was followed at 340 nm, monitored every 20 s, in a Synergy™ H1 microplate reader (Biotek Instruments, Inc. Winooski, VT, USA). The decrease in the absorbance at 340 nm was used to determine the moles of substrate consumed. One unit of enzyme activity is defined as the amount of enzyme required to convert 1 μmol of NADPH to NADP per minute at 25 °C [42].
(§2) Compounds ZINC04684558, ZINC09642432, ZINC12151998, ZINC14970552, and ZINC11841871 with affinity to the LmTR catalytic site with docking scores of at most −5.29 kcal/mol were selected to evaluate their in vitro inhibition of rLmTR activity. […] The assay was carried out following the conditions previously described to determine the rLmTR activity. The percentage of inhibition was obtained using the following equation:(1) % Inhibition=[…] where A0 is the enzyme activity without inhibitor and A1 is the enzyme activity in the presence of inhibitor.

[3] = test system: L. mexicana promastigotes strain MNYC/BZ/62/M379; assay: Activity against L. mexicana promastigotes (resazurin method); details: for SI (selectivity index): SI = CC50/IC50 (J774.2 / L. mexicana promastigotes)
Description: After incubation for 48 h at 26 °C, 20 µL of 2.5 mM resazurin solution was added to each well and incubated for 4 h. […] All assays were carried out in triplicate. The half-maximal inhibitory concentration (IC50) was determined by Probit analysis.

[4] = Solubility in the enzyme assay (observation); type: physicochemical; details: prevented testing at higher concentration in the rLmTR assay
Description: as §2

[5] = test system: rLmTR; assay: Kinetic characterization of rLmTR with substrate T[S]2; type: biochemical, Leishmania mexicana; details: T[S]2 as substrate, 150 µM NADPH
Description: as §1
The kinetic data were analyzed by linear regression fit to Michaelis–Menten kinetics and linearized by the double reciprocal transformation of Lineweaver and Burk.

[6] = Leishmania mexicana, 48 h, read-out: IC50 (leishmanicidal activity), L. mexicana promastigotes, 48 h at 26 °C

SMILES	CC50 at 24 h ([1]; J774.2 macrophage cell line)	% Inhibition of rLmTR activity ([2]; compound at 300 µM)	IC50 [3, 6]	SI (selectivity index) [3]	CC50 at 24 h [1]	IC50 ([3]; read-out: IC50 (leishmanicidal activity), L. mexicana promastigotes, 48 h at 26 °C)	% Inhibition of rLmTR activity ([2]; compound at 150 µM)	Solubility [4]	% Inhibition of rLmTR activity ([2]; compound at 100 µM)	Km [5]
CC1(C)C[C@H](NC(=O)c2cnn(-c3ncc4c(n3)-c3ccccc3CC4)c2C2CC2)CCO1 [ZINC14970552]	219 µM	35.7%	147 µM	1.4	–	–	–	–	–	–
C[C@@H]1[C@H](O)[C@@H](C)/C=C/C=C/C=C/C=C/C=C/C=C/C=C/[C@H](O[C@@H]2O[C@H](C)[C@@H](O)[C@H](N)[C@@H]2O)C[C@@H]2O[C@](O)(C[C@@H](O)C[C@@H](O)[C@H](O)CC[C@@H](O)C[C@@H](O)CC(=O)O[C@H]1C)C[C@H](O)[C@H]2C(=O)O [Amphotericin B, reference compound]	–	–	0.11 µM	67	7.4 µM	–	–	–	–	–
Cc1nnc(N2CCN(C(=O)Nc3ccc(F)cc3F)CC2)c2nn(-c3ccccc3)c(C)c12 [ZINC09642432]	335 µM	40.1%	> 200 µM	1.5	–	222 µM	–	–	–	–
CC(=O)N[C@@H]1c2ccccc2C2(CCN(C(=O)c3n[nH]c4ccccc34)CC2)[C@H]1OCc1ccccc1 [ZINC11841871]	103 µM	–	159 µM	0.6	–	–	39.5%	poor solubility	–	–
CCCCCCCCCCCCCCCCOP(=O)([O-])OCC[N+](C)(C)C [Miltefosine, reference compound]	–	–	2.98 µM	47	141 µM	–	–	–	–	–
O=C(NCc1ccc2ncccc2c1)c1cnn(-c2ncc3c(n2)-c2ccccc2CCC3)c1C1CC1 [ZINC12151998]	53 µM	–	58 µM	0.9	–	–	–	poor solubility	32.9%	–
N[C@@H](CCC(=O)N[C@H]1CSSC[C@H](NC(=O)CC[C@H](N)C(=O)O)C(=O)NCC(=O)NCCCNCCCCNC(=O)CNC1=O)C(=O)O [T[S]2, trypanothione disulfide]	–	–	–	–	–	–	–	–	–	173 µM
